Like-named read-outs stand apart in the source and are kept apart here.
What was measured:
Assay in all cases: biochemical
Type in all cases: binding
Conditions in all cases: for Int (fluorescence emission): residual NPN fluorescence, normalized to 100 prior to ligand, screen at 2–20 μM ligand
CquiOBP1 = CquiOBP1 (Culex quinquefasciatus, UniProt Q8T6I2)
Experimental: (§1) Binding affinity (Ban et al., [2002]) was tested with a panel of 34 compounds, including attractants, a mosquito oviposition pheromone, repellents, terpenoids and other putative mosquito attractants or repellents. Unless otherwise specified, they were purchased from Sigma-Aldrich/Fluka/Acros (St. Louis, MO). Repellents: DEET (N,N-diethyl-3-methylbenzamide), PMD (p-mentan-3,8-diol) (Bedoukian Research, Inc.), picaridin (butan-2-yl 2-(2-hydroxyethyl)piperidine-1-carboxylate), IR3535 (ethyl 3-[acetyl(butyl)amino]propanoate) (gifts from Dr. Kamal Chauhan, USDA, ARS, Beltsville), (±)-citronellal, and ethyl 2-phenylacetate. Oviposition attractants: (5R,6S)-6-acetoxy-5-hexadecanolide, MOP (Bedoukian Research, Inc.), skatole, indole, 4-methylphenol, and 4-ethylphenol. Human derived compounds: nonanal, 6-methyl-5-hepten-2-one (sulcatone). Terpenoids and other putative attractants/repellents: linalool, linalool oxide, eucalyptol, camphor, fenchone, thujone, geranyl acetate, eugenol, (Z)-3-hexenyl acetate, 1-octen-3-ol, 1-octyn-3-ol, 3-octanol, 1-hexanol, methylcyclohexanol, methyl salicylate, cyclohexanone, acetophenone, benzaldehyde, 3,5-dimethoxybenzene, 1,2-dimethoxybenzene, and 2-phenylethanol.
(§2) Fluorescence spectra were recorded in a right angle configuration on a spectrofluorimeter (RF-5301, Shimadzu, Kyoto, Japan) at room temperature using a 1 cm light path fluorimeter quartz cuvette. Slit widths of 10 nm were selected for both excitation and emission. N-phenyl-1-naphthylamine (NPN, or 1-NPN) (Ban et al., [2002]) was dissolved in methanol to yield a 1 mM stock solution. The binding affinity for NPN was determined by adding aliquots of NPN into a 10 μg/ml (microgram) protein sample. NPN was excited at 337 nm and emission spectra were recorded at high speed scanning between 350 and 500 nm. All ligands used in competition experiments were dissolved in spectrophotometric grade methanol. Binding data were collected in three independent measurements. Bound ligand was evaluated from fluorescence intensity assuming that the protein was 100% active, with a stoichiometry of 1:1 (protein: ligand) at saturation. The KNPN values were estimated using Prism 5 (GraphPad Software, Inc., La Jolla, CA) by non-linear regression for a unique site of binding. The curves were linearized using Scatchard plots. Dissociation constants of the competitors were calculated according to Campanacci et al. ([2001]) from the corresponding IC50 values in the equation: Kdiss = [IC50]/1+[NPN]/KNPN, where [NPN] is the free concentration of NPN and KNPN is the dissociation constant of the complex protein/NPN.

CquiOBP2 = CquiOBP2 (Culex quinquefasciatus, UniProt C7BDZ6)
Sequence of CquiOBP2 (C7BDZ6 entry or part of it): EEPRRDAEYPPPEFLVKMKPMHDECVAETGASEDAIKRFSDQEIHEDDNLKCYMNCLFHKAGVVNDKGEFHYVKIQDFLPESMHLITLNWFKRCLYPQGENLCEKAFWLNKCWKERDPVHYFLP
Experimental: as §1, §2

CquiOBP5 = CquiOBP5 (Culex quinquefasciatus, UniProt C7BDZ9)
Sequence of CquiOBP5 (C7BDZ9 entry or part of it): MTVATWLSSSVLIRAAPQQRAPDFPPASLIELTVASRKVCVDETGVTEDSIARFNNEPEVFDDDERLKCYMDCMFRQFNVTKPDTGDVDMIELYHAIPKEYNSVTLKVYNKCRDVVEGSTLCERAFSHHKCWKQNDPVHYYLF
Experimental: as §1, §2

[1] = CquiOBP1, NPN displacement titration, read-out: IC50
[2] = CquiOBP1, calculated from IC50 of NPN displacement, read-out: Kd
[3] = CquiOBP2, NPN displacement titration, read-out: IC50
[4] = CquiOBP2, calculated from IC50 of NPN displacement, read-out: Kd
[5] = CquiOBP5, NPN displacement titration, read-out: IC50
[6] = CquiOBP5, calculated from IC50 of NPN displacement, read-out: Kd

Sequence of CquiOBP1 (Q8T6I2 entry or part of it): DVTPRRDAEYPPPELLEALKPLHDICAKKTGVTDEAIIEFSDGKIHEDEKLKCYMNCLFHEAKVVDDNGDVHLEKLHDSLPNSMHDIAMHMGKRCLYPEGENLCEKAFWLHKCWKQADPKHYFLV

Compound | IC50 (CquiOBP1; [1]) [µM] | Kd (CquiOBP1; [2]) [µM] | Int (fluorescence emission) (CquiOBP1; CquiOBP1) | IC50 (CquiOBP2; [3]) [µM] | Kd (CquiOBP2; [4]) [µM] | Int (fluorescence emission) (CquiOBP2; CquiOBP2) | IC50 (CquiOBP5; [5]) [µM] | Kd (CquiOBP5; [6]) [µM] | Int (fluorescence emission) (CquiOBP5; CquiOBP5) | IC50 (CquiOBP1) [µM] | Kd (CquiOBP1) [µM] | IC50 (CquiOBP2) [µM] | Kd (CquiOBP2) [µM] | IC50 (CquiOBP5) [µM] | Kd (CquiOBP5) [µM] | binding to CquiOBP1 (in words) (CquiOBP1; in vitro, NPN displacement) | binding to CquiOBP2 (in words) (CquiOBP2; in vitro, NPN displacement) | binding to CquiOBP5 (in words) (CquiOBP5; in vitro, NPN displacement)
C=CC(C)(O)CCC=C(C)C (stereo not drawn) [Linalool, linalool] | > 10 | > 6.3 | 91 | > 10 | > 2.5 | 97 | > 10 | > 7 | 86 | – | – | – | – | – | – | – | – | –
COc1ccccc1OC [1,2-Dimethoxybenzene, 1,2-dimethoxybenzene] | > 10 | > 6.3 | 88 | > 10 | > 2.5 | 91 | > 10 | > 7 | 87 | – | – | – | – | – | – | – | – | –
CC1CCC(O)CC1 (stereo not drawn) [4-Methylcyclohexanol] | > 10 | > 6.3 | 88 | > 10 | > 2.5 | 88 | > 10 | > 7 | 93 | – | – | – | – | – | – | – | – | –
C=CCc1ccc(O)c(OC)c1 [Eugenol, eugenol] | > 10 | > 6.3 | 72 | > 10 | > 2.5 | 82 | 10.7 | 7.4 | 57.5 | – | – | – | – | – | – | – | – | –
CCCCN(CCC(=O)OCC)C(C)=O [IR3535, ethyl 3-[acetyl(butyl)amino]propanoate] | > 10 | > 6.3 | 71 | > 10 | > 2.5 | 90 | > 10 | > 7 | 67 | – | – | – | – | – | – | – | – | –
CC12CCC(CC1=O)C2(C)C (stereo not drawn) [Camphor, camphor] | > 10 | > 6.3 | 90 | > 10 | > 2.5 | 85 | > 10 | > 7 | 89 | – | – | – | – | – | – | – | – | –
CCCCCC(O)CC (stereo not drawn) [3-Octanol, 3-octanol] | > 10 | > 6.3 | 87 | > 10 | > 2.5 | 78 | > 10 | > 7 | 85 | – | – | – | – | – | – | – | – | –
CC(=O)c1ccccc1 [Acetophenone, acetophenone] | > 10 | > 6.3 | 88 | > 10 | > 2.5 | 92 | > 10 | > 7 | 87 | – | – | – | – | – | – | – | – | –
CC1CCC(C(C)(C)O)C(O)C1 (stereo not drawn) [PMD, p-mentan-3,8-diol] | > 10 | > 6.3 | 80 | 5.3 | 1.3 | 35 | 13.8 | 9.6 | 61 | – | – | – | – | – | – | – | – | –
Cc1cc(C)cc(O)c1 [3,5-Dimethylphenol] | > 10 | > 6.3 | 84 | 7.4 | 1.9 | 40 | > 10 | > 7 | 93 | – | – | – | – | – | – | – | – | –
COC(=O)c1ccccc1O [Methyl salicylate, methyl salicylate] | > 10 | > 6.3 | 87 | > 10 | > 2.5 | 72 | > 10 | > 7 | 89 | – | – | – | – | – | – | – | – | –
(±)-citronellal | > 10 | > 6.3 | 65 | > 10 | > 2.5 | 88 | > 10 | > 7 | 90 | – | – | – | – | – | – | – | – | –
CC(=O)CCC=C(C)C [Sulcatone, 6-methyl-5-hepten-2-one] | – | – | 87 | – | – | 84 | – | – | 66 | > 10 | > 6.3 | > 10 | > 2.5 | > 10 | > 7 | – | – | –
Cc1c[nH]c2ccccc12 [Skatole, skatole] | > 10 | > 6.3 | 75 | 5.6 | 1.4 | 31 | 14.4 | 10.1 | 62 | – | – | – | – | – | – | does not bind | bind | bind
C=CC1(C)CCC(C(C)(C)O)O1 (stereo not drawn) [Linalool oxide, linalool oxide] | > 10 | > 6.3 | 92 | > 10 | > 2.5 | 95 | > 10 | > 7 | 94 | – | – | – | – | – | – | – | – | –
CCc1ccc(O)cc1 [4-Ethylphenol, 4-ethylphenol] | > 10 | > 6.3 | 85 | > 10 | > 2.5 | 91 | > 10 | > 7 | 84 | – | – | – | – | – | – | – | – | –
OCCc1ccccc1 [2-Phenylethanol, 2-phenylethanol] | > 10 | > 6.3 | 91 | > 10 | > 2.5 | 92 | > 10 | > 7 | 95 | – | – | – | – | – | – | – | – | –
O=C1CCCCC1 [Cyclohexanone, cyclohexanone] | > 10 | > 6.3 | 79 | > 10 | > 2.5 | 86 | > 10 | > 7 | 82 | – | – | – | – | – | – | – | – | –
CCN(CC)C(=O)c1cccc(C)c1 [DEET, N,N-diethyl-3-methylbenzamide] | > 10 | > 6.3 | 82 | > 10 | > 2.5 | 96 | > 10 | > 7 | 92 | – | – | – | – | – | – | – | – | –
CC(C)[C@]12CC(=O)[C@H](C)[C@H]1C2 [Thujone, thujone] | – | – | 96 | – | – | 87 | – | – | 90 | > 10 | > 6.3 | > 10 | > 2.5 | > 10 | > 7 | – | – | –
CC/C=C\CCOC(C)=O [(Z)-3-Hexenyl acetate, (Z)-3-hexenyl acetate] | > 10 | > 6.3 | 79 | > 10 | > 2.5 | 93 | > 10 | > 7 | 83 | – | – | – | – | – | – | – | – | –
CCCCCCO [1-Hexanol, 1-hexanol] | > 10 | > 6.3 | 85 | > 10 | > 2.5 | 89 | > 10 | > 7 | 88 | – | – | – | – | – | – | – | – | –
CC12CCC(CC1)C(C)(C)O2 [Eucalyptol, eucalyptol] | > 10 | > 6.3 | 96 | > 10 | > 2.5 | 90 | > 10 | > 7 | 73 | – | – | – | – | – | – | – | – | –
CC(=O)OC/C=C(\C)CCC=C(C)C [Geranyl acetate, geranyl acetate] | > 10 | > 6.3 | 94 | > 10 | > 2.5 | 90 | > 10 | > 7 | 81 | – | – | – | – | – | – | – | – | –

Source: article PMC4343023, “Selectivity of odorant-binding proteins from the southern house mosquito tested against physiologically relevant ligands” (Frontiers in Physiology, 2015)
